Results on 37 compounds are retold here after US20250171452A1 (Viscient Bio, Inc., priority 2022, published 2025).

As usually defined, the IC50 is the point on the concentration scale where inhibition reaches its midpoint. Read a low IC50 as greater potency in that assay.

Assay [1] concerns the target Indoleamine 2,3-dioxygenase 1 (IDO1) (Homo sapiens (Human), UniProt P14902). Kind of assay: Cellular IDO1 assay: kynurenine production in IFN-γ-stimulated HeLa cells, colorimetric.
In assay [2] the target is IDO2 (Homo sapiens (Human), UniProt Q6ZQW0). The experiment in a line: Cellular IDO2 assay, doxycycline and 5-methoxy-L-tryptophan medium, colorimetric. The assay is classed as cell-based.
Procedure: IDO2 inhibition at the cellular level was evaluated in vitro using the following procedure.
Using cell culture medium, the volume of the suspension was adjusted to achieve a cell concentration of 20,000 cells/well (90 uL/well).
5-Methoxy-L-tryptophan powder was dissolved in the culture medium to a concentration of 10 mM, then filtered and sterilized with a 0.22 um filter. Doxycycline powder was dissolved in ddH2O to a concentration of 100 ug/ml, then filtered and sterilized with a 0.22 um filter. 5-aminolevulinic acid powder was dissolved in ddH2O to a concentration of 400 mM, then filtered and sterilized with a 0.22 um filter. A 2× Assay medium was then by diluting the doxycycline (from 100 ug/ml to 2 ug/ml) and 5-Methoxy-L-tryptophan (from 10 mM to 5 mM) in culture medium. The 5-aminolevulinic acid solution was also added to the solution (diluting the concentration from 400 mM to 2 mM) to get a 2× working solution.
After incubation, plates and reagents were allows to equilibrate to room temperature. […] Trichloroacetic acid powder was dissolved in ddH2O to prepare 6.1N trichloroacetic acid. […] The plates were incubated at 55° C. for 40 minutes, and then centrifuged for 10 min at 2500 rpm. […] Measurement of the signal was performed using Envision at 480 nm. Throughout the foregoing process, care was taken to prevent exposure to light.
The mark [3] stands for this setting: cellular level, 72 h incubation, signal at 480 nm.

Read-outs that look alike come from different tables or passages of the source. Bounds are passed on as bounds.

Sequence of Indoleamine 2,3-dioxygenase 1 (IDO1) (P14902 whole entry): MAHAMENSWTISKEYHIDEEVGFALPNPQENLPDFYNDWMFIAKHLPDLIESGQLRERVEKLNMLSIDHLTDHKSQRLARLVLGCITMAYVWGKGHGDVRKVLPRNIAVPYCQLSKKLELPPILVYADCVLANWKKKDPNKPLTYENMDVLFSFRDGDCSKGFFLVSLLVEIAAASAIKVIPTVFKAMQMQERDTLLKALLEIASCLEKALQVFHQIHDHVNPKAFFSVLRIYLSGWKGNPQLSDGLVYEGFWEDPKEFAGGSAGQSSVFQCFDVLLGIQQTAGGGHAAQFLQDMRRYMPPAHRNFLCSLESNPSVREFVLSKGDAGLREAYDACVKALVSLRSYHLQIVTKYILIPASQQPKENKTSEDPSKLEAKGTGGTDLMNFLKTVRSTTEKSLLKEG
Sequence of IDO2 (Q6ZQW0 whole entry, species assumed): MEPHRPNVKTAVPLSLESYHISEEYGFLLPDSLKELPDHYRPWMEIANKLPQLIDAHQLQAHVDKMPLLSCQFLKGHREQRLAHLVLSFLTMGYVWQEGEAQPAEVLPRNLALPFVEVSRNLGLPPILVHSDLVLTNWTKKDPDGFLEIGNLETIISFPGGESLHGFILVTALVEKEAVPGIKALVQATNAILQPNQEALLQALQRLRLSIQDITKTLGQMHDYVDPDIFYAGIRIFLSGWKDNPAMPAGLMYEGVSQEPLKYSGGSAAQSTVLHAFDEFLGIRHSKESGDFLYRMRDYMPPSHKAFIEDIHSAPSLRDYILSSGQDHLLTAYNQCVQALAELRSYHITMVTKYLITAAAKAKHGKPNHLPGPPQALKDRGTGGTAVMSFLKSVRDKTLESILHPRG

Consider `NCCNC(=O)c1ccc2c(c1)C(=O)c1nc3cc(Cl)cc(Cl)c3c(=O)n1-2` [Compound 19, N-(2-Aminoethyl)-1,3-dichloro-6,12-dioxo-6,12-dihydroindolo[2,1-b]quinazoline-8-carboxamide], for which the IC50 in assay [1] and in assay [2] (setting [3]) was greater than 500 nM each time.

Turning to `O=C1c2cc([N+](=O)[O-])ccc2-n2c1nc1c(F)cccc1c2=O` [Compound 41, 4-Fluoro-8-nitroindolo[2,1-b]quinazoline-6,12-dione], the IC50 in assay [1] was 50 to 500 nM; in assay [2] (setting [3]), less than 50 nM.

Take `NS(=O)(=O)NCCNC(=O)c1ccc2c(c1)C(=O)c1nc3cc(Cl)cc(Cl)c3c(=O)n1-2` [Compound 29, 1,3-Dichloro-6,12-dioxo-N-(2-(sulfamoylamino)ethyl)-6,12-dihydroindolo[2,1-b]quinazoline-8-carboxamide]: the IC50 in assay [1] and in assay [2] (setting [3]) was greater than 500 nM throughout.

As to `O=C1c2cc([N+](=O)[O-])ccc2-n2c1nc1c(Br)c(F)ccc1c2=O` [Compound 35], the figures for the IC50 in assay [1] and in assay [2] (setting [3]) were 50 to 500 nM and less than 50 nM, respectively.

In the case of `CC(C)(C)OC(=O)Nc1ccc2c(=O)n3c(nc2c1)C(=O)c1cc([N+](=O)[O-])ccc1-3` [Compound 17, tert-Butyl (8-nitro-6,12-dioxo-6,12-dihydroindolo[2,1-b]quinazolin-3-yl)carbamate], the IC50 in assay [1] was 50 to 500 nM; in assay [2] (setting [3]), less than 50 nM.

On to `O=C1c2cc([N+](=O)[O-])ccc2-n2c1nc1cc(F)cc(F)c1c2=O` [Compound 11, 1,3-Difluoro-8-nitroindolo[2,1-b]quinazoline-6,12-dione], for which the figures for the IC50 in assay [1] and in assay [2] were 50 to 500 nM and less than 50 nM, respectively.

Regarding `O=C1c2cc([N+](=O)[O-])ccc2-n2c1nc1c(Br)cc(F)cc1c2=O` [Compound 45, 4-Bromo-2-fluoro-8-nitroindolo[2,1-b]quinazoline-6,12-dione], the IC50 in assay [1] and in assay [2] (setting [3]) was 50 to 500 nM throughout.

As to `Nc1ccc2c(=O)n3c(nc2c1)C(=O)c1cc([N+](=O)[O-])ccc1-3` [Compound 16, 3-Amino-8-nitroindolo[2,1-b]quinazoline-6,12-dione], the IC50 in assay [1] was 50 to 500 nM; in assay [2] (setting [3]) it was less than 50 nM.

For the compound `O=C1c2cc([N+](=O)[O-])ccc2-n2c1nc1cccc(F)c1c2=O` [Compound 37, 1-Fluoro-8-nitroindolo[2,1-b]quinazoline-6,12-dione], the IC50 in assay [1] and in assay [2] was less than 50 nM in each case.

Consider `O=C1c2c(F)cc(F)cc2NC2C(O)c3cc([N+](=O)[O-])ccc3N12` (centres unmarked) [Compound 32, 1,3-Difluoro-6-hydroxy-8-nitro-5a,6-dihydroindolo[2,1-b]quinazolin-12(5H)-one], for which the IC50 in assay [1] and in assay [2] (setting [3]) was 50 to 500 nM each time.

Take `O=C(O)c1ccc2c(c1)C(=O)c1nc3cc(Cl)cc(Cl)c3c(=O)n1-2` [Compound 22, 1,3-Dichloro-6,12-dioxoindolo[2,1-b]quinazoline-8-carboxylic Acid]: the IC50 in assay [1] and in assay [2] (setting [3]) was greater than 500 nM each time.

Take `Cc1cc(C)c2nc3n(c(=O)c2c1)-c1ccc([N+](=O)[O-])cc1C3=O` [Compound 48, 2,4-Dimethyl-8-nitroindolo[2,1-b]quinazoline-6,12-dione]: the IC50 in assay [1] and in assay [2] (setting [3]) was less than 50 nM throughout.

Turning to `CNC(=O)c1ccc2c(c1)C(=O)c1nc3cc(Cl)cc(Cl)c3c(=O)n1-2` [Compound 20, 1,3-Dichloro-N-methyl-6,12-dioxo-6,12-dihydroindolo[2,1-b]quinazoline-8-carboxamide], the IC50 in assay [1] and in assay [2] (setting [3]) was 50 to 500 nM each time.

Turning to `O=c1c2c(F)cc(F)cc2nc2n1-c1ccc([N+](=O)[O-])cc1C2` [Compound 34, 1,3-Difluoro-8-nitroindolo[2,1-b]quinazolin-12(6H)-one], the IC50 was greater than 500 nM in assay [1] and 50 to 500 nM in assay [2] (setting [3]).

In the case of `O=C1c2cc([N+](=O)[O-])ccc2-n2c1nc1cc(F)ccc1c2=O` [Compound 2, 3-Fluoro-8-nitroindolo[2,1-b]quinazoline-6,12-dione], the IC50 in assay [1] and in assay [2] (setting [3]) was less than 50 nM throughout.

Regarding `O=C1c2cc(SCc3ccccc3)ccc2-n2c1nc1cc(F)ccc1c2=O` [Compound 28], the IC50 was 50 to 500 nM in assay [1] and less than 50 nM in assay [2] (setting [3]).

For `NS(=O)(=O)NCCNC(=O)c1ccc2c(c1)C(=O)c1nc3cc(Cl)ccc3c(=O)n1-2` [Compound 13, 3-Chloro-6,12-dioxo-N-(2-(sulfamoylamino)ethyl)-6,12-dihydroindolo[2,1-b]quinazoline-8-carboxamide], the IC50 in assay [1] and in assay [2] (setting [3]) was greater than 500 nM in each case.

`NS(=O)(=O)c1ccc2c(c1)C(=O)c1nc3cc(F)ccc3c(=O)n1-2` [Compound 27]: the results for the IC50 in assay [1] and in assay [2] (setting [3]) were 50 to 500 nM and less than 50 nM, respectively.

With `O=C1c2cc([N+](=O)[O-])ccc2-n2c1nc1c(Br)cc(Cl)cc1c2=O` [Compound 47, 4-Bromo-2-chloro-8-nitroindolo[2,1-b]quinazoline-6,12-dione], the IC50 was greater than 500 nM in assay [1] and 50 to 500 nM in assay [2] (setting [3]).

On to `O=[N+]([O-])c1ccc2c(c1)C(O)C1Nc3cc(F)ccc3CN21` (centres unmarked) [Compound 21, 3-Fluoro-8-nitro-5H,5aH,6H,12H-indolo[2,1-b]quinazolin-6-ol], for which the IC50 in assay [1] and in assay [2] (setting [3]) was less than 50 nM in each case.

On to `N#Cc1ccc2c(c1)C(=O)c1nc3cc(F)ccc3c(=O)n1-2` [Compound 12, 3-Fluoro-6,12-dioxo-6,12-dihydroindolo[2,1-b]quinazoline-8-carbonitrile], for which the IC50 in assay [1] and in assay [2] (setting [3]) was less than 50 nM in each case.

Turning to `Nc1ccc2c(c1)C(=O)c1nc3cc(Cl)ccc3c(=O)n1-2` [Compound 5, 8-Amino-3-chloroindolo[2,1-b]quinazoline-6,12-dione], the IC50 in assay [1] was greater than 500 nM; in assay [2] (setting [3]), 50 to 500 nM.

Take `O=C1c2cc([N+](=O)[O-])ccc2-n2c1nc1c(Br)cccc1c2=O` [Compound 43, 4-Bromo-8-nitroindolo[2,1-b]quinazoline-6,12-dione]: the IC50 is 50 to 500 nM in assay [1] and less than 50 nM in assay [2] (setting [3]).

Regarding `O=C(O)c1ccc2c(c1)C(=O)c1nc3cc(Cl)ccc3c(=O)n1-2` [Compound 4, 3-Chloro-6,12-dioxo-6,12-dihydroindolo[2,1-b]quinazoline-8-carboxylic Acid], the IC50 in assay [1] and in assay [2] (setting [3]) was greater than 500 nM in each case.

Regarding `O=C1c2cc([N+](=O)[O-])ccc2-n2c1nc1cnc(O)cc1c2=O` [Compound 51, 3-Hydroxy-9-nitropyrido[3′,4′:4,5]pyrimido[1,2-a]indole-5,11-dione], the IC50 in assay [1] was greater than 500 nM; in assay [2] (setting [3]), 50 to 500 nM.

As to `NCCNC(=O)c1ccc2c(c1)C(=O)c1nc3cc(Cl)ccc3c(=O)n1-2` [Compound 10, N-(2-Aminoethyl)-3-chloro-6,12-dioxo-6,12-dihydroindolo[2,1-b]quinazoline-8-carboxamide], the results for the IC50 in assay [1] and in assay [2] (setting [3]) were greater than 500 nM and 50 to 500 nM, respectively.

`O=C1c2cc(S(=O)(=O)Cc3ccccc3)ccc2-n2c1nc1cc(F)ccc1c2=O` [Compound 33, 8-(Benzylsulfonyl)-3-fluoroindolo[2,1-b]quinazoline-6,12-dione]: the IC50 in assay [1] and in assay [2] (setting [3]) was less than 50 nM throughout.

As to `CN(C)C(=O)c1ccc2c(c1)C(=O)c1nc3cc(Cl)cc(Cl)c3c(=O)n1-2` [Compound 24, 1,3-Dichloro-N,N-dimethyl-6,12-dioxo-6,12-dihydroindolo[2,1-b]quinazoline-8-carboxamide], the IC50 in assay [1] and in assay [2] (setting [3]) was 50 to 500 nM in each case.

Turning to `Cc1ccc2c(=O)n3c(nc2c1)C(=O)c1cc([N+](=O)[O-])ccc1-3` [Compound 1, 3-Methyl-8-nitroindolo[2,1-b]quinazoline-6,12-dione], the IC50 in assay [1] was less than 50 nM; in assay [2] (setting [3]), 50 to 500 nM.

With `Cc1c(F)ccc2c(=O)n3c(nc12)C(=O)c1cc([N+](=O)[O-])ccc1-3` [Compound 30, 3-Fluoro-4-methyl-8-nitroindolo[2,1-b]quinazoline-6,12-dione], the values for the IC50 in assay [1] and in assay [2] (setting [3]) were 50 to 500 nM and less than 50 nM, respectively.

Turning to `COC(=O)c1ccc2c(c1)C(=O)c1nc3cc(Cl)ccc3c(=O)n1-2` [Compound 6, Methyl 3-chloro-6,12-dioxo-6,12-dihydroindolo[2,1-b]quinazoline-8-carboxylate], the IC50 in assay [1] and in assay [2] (setting [3]) was 50 to 500 nM in each case.

With `N#Cc1ccc2c(c1)C(O)C1Nc3cc(F)ccc3C(=O)N21` (centres unmarked) [Compound 31, 3-Fluoro-6-hydroxy-12-oxo-5,5a,6,12-tetrahydroindolo[2,1-b]quinazoline-8-carbonitrile], the IC50 in assay [1] was 50 to 500 nM; in assay [2] (setting [3]) it was less than 50 nM.

With `CC(C)(C)OC(=O)N1CCN(C(=O)c2ccc3c(c2)C(=O)c2nc4cc(Cl)cc(Cl)c4c(=O)n2-3)CC1` [Compound 26, tert-Butyl 4-(1,3-dichloro-6,12-dioxo-6,12-dihydroindolo[2,1-b]quinazoline-8-carbonyl)piperazine-1-carboxylate], the results for the IC50 in assay [1] and in assay [2] (setting [3]) were greater than 500 nM and 50 to 500 nM, respectively.

For `Cc1cccc2c(=O)n3c(nc12)C(=O)c1cc([N+](=O)[O-])ccc1-3` [Compound 42, 4-Methyl-8-nitroindolo[2,1-b]quinazoline-6,12-dione], the IC50 in assay [1] and in assay [2] (setting [3]) was less than 50 nM throughout.

In the case of `O=C1c2cc(Br)ccc2-n2c1nc1cc(F)ccc1c2=O` [Compound 18, 8-Bromo-3-fluoroindolo[2,1-b]quinazoline-6,12-dione], the IC50 in assay [1] is greater than 500 nM; in assay [2] (setting [3]) it was 50 to 500 nM.

Turning to `O=C1c2cc(C(=O)N3CCNCC3)ccc2-n2c1nc1cc(Cl)cc(Cl)c1c2=O` [Compound 25, 1,3-dichloro-8-(piperazine-1-carbonyl)indolo[2,1-b]quinazoline-6,12-dione], the IC50 in assay [1] and in assay [2] (setting [3]) was 50 to 500 nM in each case.

Take `N#Cc1ccc2c(c1)C(=O)c1nc3cc(Cl)ccc3c(=O)n1-2` [Compound 3, 3-Chloro-6,12-dioxo-6,12-dihydroindolo[2,1-b]quinazoline-8-carbonitrile]: the IC50 in assay [1] and in assay [2] (setting [3]) was less than 50 nM each time.
